Measurements: ChEMBL document CHEMBL2434921, “New synthetic aliphatic sulfonamido-quaternary ammonium salts as anticancer chemotherapeutic agents” (2013)
Active and inactive are the calls of the source. The rule behind the calls is not given here.

How the values were obtained:
ACHN [1] = experiment: Growth of human ACHN cells at 0.3 uM after 48 hrs by SRB assay
MDA-MB-231 [2] = experiment: Growth of human MDA-MB-231 cells at 10 uM after 48 hrs by SRB assay; conditions: MDA-MB-231, 48 h
HCT-15 [3] = experiment: Growth inhibition of human HCT15 cells after 48 hrs by SRB assay; format: functional; conditions: HCT-15, 48 h
[4] = target: Rho-related GTP-binding protein RhoB (Homo sapiens) (UniProt P62745); experiment: Transactivation of RhoB (unknown origin) transfected in human HeLa cells at 5 uM measured over 10 secs by dual luciferase reporter gene assay; format: cell-based
Chain of Rho-related GTP-binding protein RhoB (Homo sapiens) (P62745 whole entry): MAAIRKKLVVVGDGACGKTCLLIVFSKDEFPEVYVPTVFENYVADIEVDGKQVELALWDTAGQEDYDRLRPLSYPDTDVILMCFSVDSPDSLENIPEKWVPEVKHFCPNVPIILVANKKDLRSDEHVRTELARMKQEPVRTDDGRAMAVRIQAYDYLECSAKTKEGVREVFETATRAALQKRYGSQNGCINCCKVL

NUGC-3 [5] = experiment: Growth of human NUGC3 cells at 0.3 uM after 48 hrs by SRB assay; conditions: NUGC-3, 48 h
MDA-MB-231 [6] = experiment: Growth inhibition of human MDA-MB-231 cells after 48 hrs by SRB assay; format: functional; conditions: MDA-MB-231, 48 h
HCT-15 [7] = experiment: Growth of human HCT15 cells at 3 uM after 48 hrs by SRB assay; conditions: HCT-15, 48 h
PC-3 [8] = experiment: Growth inhibition of human PC3 cells at 3 uM after 48 hrs by SRB assay; values are per cent of control; conditions: PC-3, 48 h
HCT-15 [9] = experiment: Growth inhibition of human HCT15 cells at 0.1 uM after 48 hrs by SRB assay; values are per cent of control; conditions: HCT-15, 48 h
NUGC-3 [10] = experiment: Growth of human NUGC3 cells at 1 uM after 48 hrs by SRB assay; conditions: NUGC-3, 48 h
NUGC-3 [11] = experiment: Growth inhibition of human NUGC3 cells at 3 uM after 48 hrs by SRB assay; values are per cent of control; conditions: NUGC-3, 48 h
ACHN [12] = experiment: Growth inhibition of human ACHN cells at 1 uM after 48 hrs by SRB assay; values are per cent of control
NCI-H23 [13] = experiment: Growth inhibition of human NCI-H23 cells at 0.1 uM after 48 hrs by SRB assay; values are per cent of control; conditions: NCI-H23, 48 h
HCT-15 [14] = experiment: Growth inhibition of human HCT15 cells at 10 uM after 48 hrs by SRB assay; values are per cent of control; conditions: HCT-15, 48 h
MDA-MB-231 [15] = experiment: Growth of human MDA-MB-231 cells at 3 uM after 48 hrs by SRB assay; values are per cent of control; conditions: MDA-MB-231, 48 h
MDA-MB-231 [16] = experiment: Growth inhibition of human MDA-MB-231 cells at 0.3 uM after 48 hrs by SRB assay; values are per cent of control; conditions: MDA-MB-231, 48 h
PC-3 [17] = experiment: Growth inhibition of human PC3 cells at 1 uM after 48 hrs by SRB assay; values are per cent of control; conditions: PC-3, 48 h
NCI-H23 [18] = experiment: Growth of human NCI-H23 cells at 10 uM after 48 hrs by SRB assay; conditions: NCI-H23, 48 h
HCT-15 [19] = experiment: Growth inhibition of human HCT15 cells at 1 uM after 48 hrs by SRB assay; values are per cent of control; conditions: HCT-15, 48 h
NCI-H23 [20] = experiment: Growth inhibition of human NCI-H23 cells at 1 uM after 48 hrs by SRB assay; values are per cent of control; conditions: NCI-H23, 48 h
ACHN [21] = experiment: Growth inhibition of human ACHN cells at 3 uM after 48 hrs by SRB assay; values are per cent of control
ACHN [22] = experiment: Growth of human ACHN cells at 10 uM after 48 hrs by SRB assay
ACHN [23] = experiment: Growth inhibition of human ACHN cells after 48 hrs by SRB assay; format: functional
NCI-H23 [24] = experiment: Growth inhibition of human NCI-H23 cells after 48 hrs by SRB assay; format: functional; conditions: NCI-H23, 48 h
MDA-MB-231 [25] = experiment: Growth of human MDA-MB-231 cells at 1 uM after 48 hrs by SRB assay; conditions: MDA-MB-231, 48 h
NUGC-3 [26] = experiment: Growth inhibition of human NUGC3 cells at 10 uM after 48 hrs by SRB assay; values are per cent of control; conditions: NUGC-3, 48 h
PC-3 [27] = experiment: Growth inhibition of human PC3 cells after 48 hrs by SRB assay; format: functional; conditions: PC-3, 48 h
NUGC-3 [28] = experiment: Growth of human NUGC3 cells at 0.1 uM after 48 hrs by SRB assay; conditions: NUGC-3, 48 h
PC-3 [29] = experiment: Growth inhibition of human PC3 cells at 0.1 uM after 48 hrs by SRB assay; values are per cent of control; conditions: PC-3, 48 h
HCT-15 [30] = experiment: Growth of human HCT15 cells at 0.3 uM after 48 hrs by SRB assay; conditions: HCT-15, 48 h
PC-3 [31] = experiment: Growth of human PC3 cells at 10 uM after 48 hrs by SRB assay; conditions: PC-3, 48 h
NUGC-3 [32] = experiment: Growth inhibition of human NUGC3 cells after 48 hrs by SRB assay; format: functional; conditions: NUGC-3, 48 h
MDA-MB-231 [33] = experiment: Growth of human MDA-MB-231 cells at 0.1 uM after 48 hrs by SRB assay; conditions: MDA-MB-231, 48 h
ACHN [34] = experiment: Growth of human ACHN cells at 0.1 uM after 48 hrs by SRB assay
PC-3 [35] = experiment: Growth inhibition of human PC3 cells at 0.3 uM after 48 hrs by SRB assay; values are per cent of control; conditions: PC-3, 48 h
NCI-H23 [36] = experiment: Growth inhibition of human NCI-H23 cells at 3 uM after 48 hrs by SRB assay; values are per cent of control; conditions: NCI-H23, 48 h
NCI-H23 [37] = experiment: Growth of human NCI-H23 cells at 0.3 uM after 48 hrs by SRB assay; conditions: NCI-H23, 48 h

| Compound | growth, % of control at 0.3 µM (ACHN [1]) | growth, % of control at 10 µM (MDA-MB-231 [2]) | GI50 (HCT-15 [3]) | Activity [4] | growth, % of control at 0.3 µM (NUGC-3 [5]) | GI50 (MDA-MB-231 [6]) | growth, % of control at 3 µM (HCT-15 [7]) | growth, % of control at 3 µM (PC-3 [8]) | growth, % of control at 0.1 µM (HCT-15 [9]) | growth, % of control at 1 µM (NUGC-3 [10]) | growth, % of control at 3 µM (NUGC-3 [11]) | growth, % of control at 1 µM (ACHN [12]) | growth, % of control at 0.1 µM (NCI-H23 [13]) | growth, % of control at 10 µM (HCT-15 [14]) | growth, % of control at 3 µM (MDA-MB-231 [15]) | growth, % of control at 0.3 µM (MDA-MB-231 [16]) | growth, % of control at 1 µM (PC-3 [17]) | growth, % of control at 10 µM (NCI-H23 [18]) | growth, % of control at 1 µM (HCT-15 [19]) | growth, % of control at 1 µM (NCI-H23 [20]) | other results |
| --- | --- | --- | --- | --- | --- | --- | --- | --- | --- | --- | --- | --- | --- | --- | --- | --- | --- | --- | --- | --- | --- |
| CCCCCCCCCCCCCCS(=O)(=O)NCCC[N+](C)(C)CC | 91.4% | 23.9% | 1140 nM | Active | 69% | 1170 nM | 36.9% | 6.9% | 97% | 34% | 11.2% | 92.5% | 93.3% | 23.4% | 43.8% | 86.4% | 33.4% | -45.5% | 68.2% | 24% | growth, % of control at 3 µM (ACHN [21]): 42.5%; growth, % of control at 10 µM (ACHN [22]): 24.5%; GI50 (ACHN [23]): 1640 nM; GI50 (NCI-H23 [24]): 330 nM; growth, % of control at 1 µM (MDA-MB-231 [25]): 66.2%; growth, % of control at 10 µM (NUGC-3 [26]): -4.7%; GI50 (PC-3 [27]): 300 nM; growth, % of control at 0.1 µM (NUGC-3 [28]): 85.1%; growth, % of control at 0.1 µM (PC-3 [29]): 89.8%; growth, % of control at 0.3 µM (HCT-15 [30]): 94.5%; growth, % of control at 10 µM (PC-3 [31]): -11.5%; GI50 (NUGC-3 [32]): 290 nM; growth, % of control at 0.1 µM (MDA-MB-231 [33]): 83.1%; growth, % of control at 0.1 µM (ACHN [34]): 91.4%; growth, % of control at 0.3 µM (PC-3 [35]): 72.7%; growth, % of control at 3 µM (NCI-H23 [36]): -10.6%; growth, % of control at 0.3 µM (NCI-H23 [37]): 88.7% |
| CCCCCCCCCCCCCCS(=O)(=O)N(C)CCC[N+](C)(C)CC | 78.5% | 7.1% | 1270 nM | Active | 46.3% | 750 nM | 42.2% | -17% | 106% | 7.9% | -12.5% | 41.7% | 96.4% | 23% | 32.1% | 91.4% | 14.6% | -16.9% | 68.9% | 38.4% | growth, % of control at 3 µM (ACHN [21]): 31.4%; growth, % of control at 10 µM (ACHN [22]): 16.9%; GI50 (ACHN [23]): 540 nM; GI50 (NCI-H23 [24]): 380 nM; growth, % of control at 1 µM (MDA-MB-231 [25]): 55.2%; growth, % of control at 10 µM (NUGC-3 [26]): -18.3%; GI50 (PC-3 [27]): 220 nM; growth, % of control at 0.1 µM (NUGC-3 [28]): 75.5%; growth, % of control at 0.1 µM (PC-3 [29]): 84.9%; growth, % of control at 0.3 µM (HCT-15 [30]): 87.8%; growth, % of control at 10 µM (PC-3 [31]): -31.6%; GI50 (NUGC-3 [32]): 130 nM; growth, % of control at 0.1 µM (MDA-MB-231 [33]): 95.9%; growth, % of control at 0.1 µM (ACHN [34]): 87.9%; growth, % of control at 0.3 µM (PC-3 [35]): 68.3%; growth, % of control at 3 µM (NCI-H23 [36]): 3%; growth, % of control at 0.3 µM (NCI-H23 [37]): 79.8% |
| CCCCCCCCCCCCCCCCS(=O)(=O)NCCC[N+](C)(C)C | 119% | 12.9% | 860 nM | Active | 93.6% | 1390 nM | 22.4% | -1% | 96% | 60.2% | -5.5% | 112% | 86.7% | 1.7% | 41% | 108% | 64.6% | -23.1% | 73.6% | 88.6% | growth, % of control at 3 µM (ACHN [21]): 80.3%; growth, % of control at 10 µM (ACHN [22]): -7.7%; GI50 (ACHN [23]): 1890 nM; GI50 (NCI-H23 [24]): 1560 nM; growth, % of control at 1 µM (MDA-MB-231 [25]): 87%; growth, % of control at 10 µM (NUGC-3 [26]): -37.7%; GI50 (PC-3 [27]): 580 nM; growth, % of control at 0.1 µM (NUGC-3 [28]): 103%; growth, % of control at 0.1 µM (PC-3 [29]): 100%; growth, % of control at 0.3 µM (HCT-15 [30]): 93%; growth, % of control at 10 µM (PC-3 [31]): -32.7%; GI50 (NUGC-3 [32]): 560 nM; growth, % of control at 0.1 µM (MDA-MB-231 [33]): 103%; growth, % of control at 0.1 µM (ACHN [34]): 117%; growth, % of control at 0.3 µM (PC-3 [35]): 102%; growth, % of control at 3 µM (NCI-H23 [36]): 47.1%; growth, % of control at 0.3 µM (NCI-H23 [37]): 93.7% |
